For six compounds, Ki results are on record in ChEMBL document CHEMBL1130856, “A new series of cyclic amino acids as inhibitors of S-adenosyl L-methionine synthetase” (Bioorg Med Chem Lett, 1998).

pKi: −log10 of the molar value.

Test [1] has as its target T1, S-adenosylmethionine synthase isoform type-1 (Rattus norvegicus, UniProt P13444). The test can be described thus: Compound was evaluated for its inhibitory activity against recombinant S-adenosyl L-Methionine synthetase (alpha-isoform) in rat liver.
In test [2] the target is T1, S-adenosylmethionine synthase isoform type-1. Nature of the test: Compound was evaluated for its inhibitory activity against recombinant S-adenosyl L-Methionine synthetase (alpha-isoform) in rat liver; No significant activity.

T1 sequence (P13444 whole entry, canonical isoform): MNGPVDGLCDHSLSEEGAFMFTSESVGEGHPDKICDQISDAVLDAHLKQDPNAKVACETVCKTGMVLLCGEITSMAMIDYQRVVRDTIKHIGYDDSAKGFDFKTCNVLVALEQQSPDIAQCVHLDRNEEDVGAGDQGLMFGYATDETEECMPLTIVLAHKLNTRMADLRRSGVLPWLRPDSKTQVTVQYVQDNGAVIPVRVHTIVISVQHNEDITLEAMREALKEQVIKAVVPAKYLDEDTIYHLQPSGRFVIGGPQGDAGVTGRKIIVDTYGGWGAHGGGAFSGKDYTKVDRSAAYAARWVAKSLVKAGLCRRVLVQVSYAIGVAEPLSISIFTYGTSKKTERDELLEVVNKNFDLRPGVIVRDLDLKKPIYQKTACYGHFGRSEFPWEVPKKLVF

`CO/C=C\[C@H](N)C(=O)O`: the pKi in test [1] was 4.25. Same read-out and setting: to `NC1(C(=O)O)CCOCC1` belongs 3.00. `N[C@]1(C(=O)O)CCSC1`: the pKi in test [1] was 2.98. The Ki result in test [2] is “Not Active”.

Regarding `N[C@]1(C(=O)O)CCOC1`, the pKi in test [1] is 3.12. In addition, the Ki entry in test [2] is “Not Active”.

For `NC1(C(=O)O)CCSCC1`, the pKi in test [1] is 2.52. Same read-out and setting: to `NC1(C(=O)O)CCCC1` [CYCLOLEUCINE] belongs 3.29.
